According to patent publication US20100035822A1, “PROLINE-RICH PEPTIDES, PHARMACEUTICAL COMPOSITION, USE OF ONE OR MORE PEPTIDES AND METHOD OF TREATMENT” (priority 2006, published 2010):
“Also recorded” adds a separate entry of the source.

Experiments:
[1] = test system: C6 cells from rat glioma; assay: NO production in C6 glia cells; format: cell-based
Method: All reagents for cellular biology experiments were purchased from Invitrogen. C6 cells from rat glioma were cultured in DMEM, supplemented with 10% fetal bovine serum, streptomycin sulphate (100 μg/ml), and penicillin G (100 U/ml). Cultures were kept at 37° C. in 5% CO2 atmosphere. 24 hours before peptides were added, cells were transferred to a 24 well plate (1.5×10^5 cells/ml/well), containing DMEM medium lacking serum. Peptides were added to the cultures to a final concentration of 1 μM, and incubated for 24 hours at 37° C. in 5% CO2 atmosphere. The medium was collected and stored at −80° C.
NO concentration was determined in 1 ml of culture medium, which was incubated with N-ethylmaleimide at a final concentration of 10 mM, for 24 hours. The supernatant of a centrifugation at 1.000 rpm was injected in the NOA equipment (Nitric Oxide Analyser-Sievers) for NO quantification.

[2] = test system: total kidney protein extract; assay: NO production in total kidney protein extract; format: biochemical, mouse; details: kidney homogenate of mice; 0.01 to 50 μmol, preferentially 0.5 to 2 μmol peptide
Method: The release of NO was evaluated by means of nitrate and nitrit accumulation in total kidney protein extract of male Swiss mice weighing 30-35 g, as described by Wu and Yen (Wu C C and Yen M H. Higher level of plasma nitric oxide in spontaneously hypertensive rats. Am. J. Hypertension 12: 476-482, 1999). Animals were subjected to perfusion with 0.9% saline solution containing heparin (1:1000). Kidneys were collected and homogenized in cold 50 mM Tris-HCl, 0.1 mM EDTA, 0.1 mM EGTA, 12 mM β-mercaptoethanol, and 1 mM phenylmethylsulphonyl fluoride, pH 7.4 buffer in a homogenizer (Polytron PT MR 3000, Kinematic AG, Littau). Homogenates were incubated with 10 nM, 1 μM, or 10 μM peptide SEQ ID NO 8 in a final volume of 500 μl for 1 hour. Trichloracetic acid (1%) was added at 4° C., and after 20 minutes the mixture was centrifuged at 13.000 g for 7 min at 4° C. A saturated solution of vanadium chloride (VCl3) in 1 M HCl at 90° C. was added to the supernatant, and the concentration of NO was determined by gas chemiluminescence by means of the reaction of NO with ozone in a NO analyzer (NOA^TM280; Sievers Inc.). The concentration of nitrate was determined using a standard curve of NaNO3 and the Bag software 2.2 (Sievers Instruments Inc.).

[3] = molecular target: T1, argininosuccinate synthase (AsS) (Mus musculus, UniProt P16460); assay: Potentiation of argininosuccinate synthase activity (phosphate generated from ATP); format: biochemical
T1 construct: Cytosolic and membrane fractions of the renal extract (100 mg/ml total protein) were applied to separate columns; from tissue; host or cells: Balb-c mouse kidney, cytosolic and membrane fractions
T1 sequence (P16460 1-412): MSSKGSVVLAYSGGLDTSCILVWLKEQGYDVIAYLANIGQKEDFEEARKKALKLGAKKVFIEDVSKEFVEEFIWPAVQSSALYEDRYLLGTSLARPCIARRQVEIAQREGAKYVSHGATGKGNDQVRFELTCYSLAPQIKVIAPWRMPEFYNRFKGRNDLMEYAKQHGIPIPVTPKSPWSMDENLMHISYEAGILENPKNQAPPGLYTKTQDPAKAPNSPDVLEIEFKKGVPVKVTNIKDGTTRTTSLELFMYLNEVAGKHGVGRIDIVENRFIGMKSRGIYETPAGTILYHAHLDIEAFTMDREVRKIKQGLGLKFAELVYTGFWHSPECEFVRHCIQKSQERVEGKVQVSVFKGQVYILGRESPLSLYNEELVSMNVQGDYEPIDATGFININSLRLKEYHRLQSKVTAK
Method: Activation of the AsS enzyme of Example 3 by peptide SEQ ID NO 8 was quantified in vitro according to Hao et al. [Hao G., Xie L., Gross S. S. Argininosuccinate synthetase is reversibly inactivated by S-nitrosylation in vitro and in vivo. J. Biol. Chem., 279:36192-36200 (2004)]. This method is based on measuring the quantity of phosphate generated from ATP, when pyrophosphatase is added to the reaction medium. Since the activity of the pyrophosphatase relates directly to the enzymatic activity of the AsS, the quantity of generated pyrophosphate is a direct measurement of the AsS activity.
The AsS enzyme (1 μg) was added to the reaction mixture containing 20 mM Tris-HCl, pH 7.8, 2 mM ATP, 2 mM citrulline, 2 mM aspartate, 6 mM MgCl2, 20 mM KCl, and 0.2 units of pyrophosphatase in a final volume of 200 μL in 96 well microplates. Increasing quantities of the SEQ ID NO 8 peptide (0.5, 1 to 8 μM) were added, and samples were incubated at 37° C. for 60 minutes. The reaction was interrupted by the addition of 200 μL of ammonium molybdate buffer (10 mM ascorbic acid, 2.5 mM ammonium molybdate, 2% sulphuric acid). Resulting phosphate was determined in the samples by spectrophotometry (absorbance at 650 nm), using a standard curve obtained with inorganic phosphate.
The production rate of phosphate (enzymatic activity of the AsS) was activated up to approximately 2.5 fold upon addition of 2 μM peptide SEQ ID NO 8. […] Accessibility of endothelial and inducible nitric oxide synthase to the intracellular citrulline-arginine regeneration pathway. Biochem. Pharmacol. 69: 97-104, 2005].

[4] = Determination of Z-pro metabolites in mice urine; format: in vivo, mouse; details: mice; 0.91 mg/Kg intraperitoneally; urine collected after 24 hours; mass spectrometry; 0.91 mg/kg
Method: In vivo hydrolysis of peptides SEQ ID NO 1, SEQ ID NO 4, SEQ ID NO 5, SEQ ID NO 8, and SEQ ID NO 15 was investigated in Swiss male mice weighing approximately 22-25 g, which had free access to food and water, and were kept under a light-dark cycle of 12 hour periods.
Groups of 10 mice were treated intraperitoneally with 0.91 mg/Kg of each proline rich oligopeptide per animal, diluted in 200 μl saline. Treated and control animals (not treated) were kept in metabolic cages, and their urine was collected after 24 hours. The urine was pre-purified in a reverse phase Sep-Pak C18 micro column (Waters), which had been previously equilibrated with solvent A (H2O/0.1% TFA). Samples were eluted with 60% solvent B (90% acetonitrile/10% solvent A), lyophilized, and resuspended in 1 ml deionized water to be centrifuged at 14.000 rpm for 5 minutes. The supernatant (500 μl) was fractionated in an analytic HPLC system. The gradient was 5-65% solvent B for 30 minutes, using a flow rate of 1 ml/min and monitoring at 214 nm. Fractions were lyophilized and ressuspended in acetonitrile/H2O (1:1), containing 0.2% formic acid, and were analyzed by mass spectrometry (Q-TOF-Pro). Urine fractions from control and treated animals were compared to determine the presence of metabolites originated from the peptides being tested.

For <ENWPHPQIPP [SEQ ID NO 8], the “rank of efficiency in activating nitrite production” value [1] was “the most efficient”, the “increase of nitrite production (generated from NO)” value [2] was 5 fold and the “activation of the production rate of phosphate (enzymatic activity of the AsS)” value ([3]; 2 μM peptide, AsS 1-8 μg) was “approximately 2.5 fold”. The “activation of AsS” value ([3]; maximum activation) was 70-80% and the “Metabolites in the urine” value [4] was “<ENWPHPQIPP; also recorded: <ENWPHPQIP”.
